Results: US20040116297A1, “Use of polyprenol and its derivatives for facilitating growth of plants” (priority 2001, published 2004)

How the values were obtained:
[1] = test system: cabbage; settings: cited from earlier work
[2] = test system: radish; settings: cited from earlier work
[3] = test system: rice; settings: depending on the plant breeding; cited from earlier work
[4] = test system: red pepper; experiment: Effect on growth of red pepper; format: in vivo; settings: 100 ppm
Description: [Worded in the source for another target; used here, by the source, with some conditions changed.] (§1) Then, the treated seeds were dried for 24 hrs at 25° C. Round pots of 25 cm in diameter (7 L capacity) were filled with soil for horticulture, and 50 pots (2 seeds per pot) were sown. After 60 days at about 25° C., the crop growth was evaluated by rate of emergence and early plant height. […] As a control, bean seeds which were not immersed in the polyprenol preparation were used.

[5] = test system: bean; experiment: Effect on growth of bean; format: in vivo
Description: (§2) 100 g of bean seeds were immersed in a 100 ml solution containing the polyprenol preparation formulated in Example 3 at a concentration of 100 ppm, for 1 hr. Then, the treated seeds were dried for 24 hrs at 25° C. Round pots of 25 cm in diameter (7 L capacity) were filled with soil for horticulture, and 50 pots (2 seeds per pot) were sown. After 60 days at about 25° C., the crop growth was evaluated by rate of emergence and early plant height. The test was repeated 3 times, and the average values are represented in Table 7. As a control, bean seeds which were not immersed in the polyprenol preparation were used.
In example 4, the compound having chloride group instead of hydroxyl group can be synthesized. The compound was evaluated on effect on crop growth. 100 g of bean seeds were immersed in a 100 ml solution containing the polyprenol preparation formulated in Example 4 at a concentration of 100 ppm, for 1 hr. Then, the treated seeds were dried for 24 hrs. Round pots of 25 cm in diameter (7 L capacity) were filled with soil for horticulture, and 50 pots (2 seeds per pot) were sown. After 60 days, the crop growth was evaluated. The test was repeated 3 times, and the average values are represented in Table 14. As a control, bean seeds which were not immersed in the polyprenol preparation were used.
as §2, with “Example 5” for “Example 3”, “24 hrs.” for “24 hrs at 25° C.”, “60 days,” for “60 days at about 25° C.,”, “was evaluated.” for “was evaluated by rate of emergence and early plant height.”, “Table 16.” for “Table 7.”

[6] = test system: corn; experiment: Effect on growth of corn; format: in vivo; settings: for Early plant height / Fresh weight / Tiller number: corn seeds immersed 2 hrs at 100 ppm, after 60 days; for Rate of increase of early plant height / Rate of increase of fresh weight / Rate of increase of tiller number: corn, 100 ppm, vs control
Description: [Worded in the source for another target; used here, by the source, with some conditions changed.] as §1

[7] = foliage treatment after growing for 20 days
[8] = bean seeds immersed 1 hr at 100 ppm, after 60 days

Compound	Early plant height [6]	Fresh weight [6]	Tiller number [6]	Rate of increase of early plant height [6]	Rate of increase of fresh weight [6]	Rate of increase of tiller number [6]	further results
CCCCCCCCCCCCCCCCCCCCCCCCCCCCCCO [tricontanol]	–	–	–	–	–	–	Increase of yield [1]: 83%; Increase of yield [2]: 108.4%; Increase of yield [3]: 14.8-41%
Polyprenol of Formula I, in which m is 18 [Example 4]	–	–	–	–	–	–	Early plant length [4, 7]: 70.5 cm; Flower number [4, 7]: 8.4; Trunk diameter [4, 7]: 8.5 mm; Rate of increase of early plant length ([4]; vs control): 11.7%; Rate of increase of flower number ([4]; vs control): 10.5%; Rate of increase of trunk diameter ([4]; vs control): 1.2%; Early plant height [5, 8]: 68.2 cm; No. of pods [5, 8]: 35.4; Rate of emergence [5, 8]: 55.7%; Increase of all factors tested (early plant height, rate of emergence, pod number) ([5]; bean, 100 ppm, summary statement): more than 7%; Rate of increase of No. of pods ([5]; bean, 100 ppm, vs control): 17.2%; Rate of increase of early plant height ([5]; bean, 100 ppm, vs control): 7.74%; Rate of increase of rate of emergence ([5]; bean, 100 ppm, vs control): 7.32%
Polyprenyl Methyl Ether [Example 6-4]	110.1 cm	60.3 g	8.7	1.3%	15.9%	6.0%	–
Polyprenyl Methyl Sulfide [Example 6-5]	108.9 cm	65.7 g	8.5	0.2%	26.3%	3.6%	–
Polyprenyl Stearate [Example 6-3]	109.1 cm	68.0 g	8.6	0.4%	30.7%	4.8%	–
polyprenyl ethyl carbonate [Example 6-6]	109.6 cm	61.3 g	8.4	0.9%	17.8%	2.4%	–
polyprepyl dimethyl sulfonium bromide [Example 6-7]	109.5 cm	70.1 g	9.2	0.8%	34.8%	12.1%	–
